In patent US5427922A (Takeda Chemical Industries, Ltd., priority 1992, dated 1995):
Residue numbers refer to the chain shown, from its start.

How the values were obtained:
Ang II receptor = conditions: cited from earlier work
type 1 receptors = conditions: cited from earlier work
[1] = test system: reactions of KCl, norepinephrine, isoproterenol, vasopressin, bradykinin, acetylcholine or 5-HT; conditions: at suppressive doses for a high concentration (10 μM) of Ang II; cited from earlier work
ACE = conditions: at suppressive doses for a high concentration (10 μM) of Ang II; cited from earlier work
[2] = molecular target: T1, Ang II type 1 receptor from human placenta (Homo sapiens, UniProt P30556); experiment: Radio-labeled Ang II binding activity in animal cells (COS7/pHARp306) expressing full-length Ang II type 1 receptor gene from human placenta; conditions: 10 μM agonist or antagonist added; 100 pM [125I]-Ang II; room temperature, 60 minutes; control (none) 84,148 cpm
T1 sequence (P30556 1-359 Q187R/F204S/L205C/K232N/K240R/L268Q/C289W/R311K/Y312D/F313I): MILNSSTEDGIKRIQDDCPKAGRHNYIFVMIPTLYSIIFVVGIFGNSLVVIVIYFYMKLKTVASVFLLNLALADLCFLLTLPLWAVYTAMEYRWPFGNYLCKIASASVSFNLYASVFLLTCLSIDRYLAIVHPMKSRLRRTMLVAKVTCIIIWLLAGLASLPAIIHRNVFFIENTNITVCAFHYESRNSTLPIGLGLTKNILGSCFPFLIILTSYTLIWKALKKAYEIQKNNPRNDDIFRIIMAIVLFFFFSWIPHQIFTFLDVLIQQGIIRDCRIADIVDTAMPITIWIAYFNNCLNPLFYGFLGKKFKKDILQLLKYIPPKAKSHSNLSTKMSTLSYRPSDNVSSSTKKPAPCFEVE
Experimental: To each well of a 6 well petri dish, 2 ml of a DMEM medium (produced by DIFCO) containing 5% (v/v) FCS was added, and 5×10^4 COS7 cells were seeded. After incubation at 37° C. in the presence of 5% carbon dioxide for two days, the medium was aspirated and twice washed with DMEM medium.

[3] = molecular target: T2, Ang II type 1 receptor of human placental origin (Homo sapiens, UniProt P30556); experiment: Binding of radiolabeled Ang II (competition) using membrane fraction of CHO/pHARp306 cells; conditions: [125I]-Ang II, 22° C., 45 minutes
T2 sequence (P30556 1-359 Q187R/F204S/L205C/K232N/K240R/L268Q/C289W/R311K/Y312D/F313I): T1 sequence (P30556 1-359 Q187R/F204S/L205C/K232N/K240R/L268Q/C289W/R311K/Y312D/F313I)
Experimental: All measurements were performed in a series of three runs. […] An aliquot of membrane fraction equivalent to 10 μg of protein was suspended in a 0.1% (w/v) BSA solution containing 25 mM Tris (pH 7.6) and 5 mM magnesium chloride, to yield a 194 μl suspension. […] After 45 minutes of reaction, the reaction mixture was aspirated onto a glass filter, which was washed with 4 ml of ice-cooled Tris (pH 7.6), and the residual radioactivity on the glass filter was measured using a γ-ray counter. The final sample concentration was varied over a range of from 1 pM to 10 μM. In the measurement, the amount of non-specific binding was defined as 0%, and the maximum mount of binding in the absence of sample defined as 100%. With this regard, the -log (M) value of the sample concentration (M) resulting in 50% binding was defined as IC50 value.

[4] = molecular target: T3, Ang II type 1 receptor of human heart origin (Homo sapiens, UniProt P30556); experiment: Binding of radiolabeled Ang II (competition) using membrane fraction of control CHO/pHARt306 cells; conditions: for Competition; IC50 [-log(M)]: membrane fraction of CHO/pHARt306 (human heart origin), [125I]-Ang II, 22° C., 45 minutes
T3 sequence (P30556 1-359): T1 sequence (P30556 1-359 Q187R/F204S/L205C/K232N/K240R/L268Q/C289W/R311K/Y312D/F313I) with R187Q, S204F, C205L, N232K, R240K, Q268L, W289C, K311R, D312Y, I313F
Experimental: All measurements were performed in a series of three runs. […] An aliquot of membrane fraction equivalent to 10 μg of protein was suspended in a 0.1% (w/v) BSA solution containing 25 mM Tris (pH 7.6) and 5 mM magnesium chloride, to yield a 194 μl suspension. […] After 45 minutes of reaction, the reaction mixture was aspirated onto a glass filter, which was washed with 4 ml of ice-cooled Tris (pH 7.6), and the residual radioactivity on the glass filter was measured using a γ-ray counter. The final sample concentration was varied over a range of from 1 pM to 10 μM. In the measurement, the amount of non-specific binding was defined as 0%, and the maximum mount of binding in the absence of sample defined as 100%. With this regard, the -log (M) value of the sample concentration (M) resulting in 50% binding was defined as IC50 value. A membrane fraction was also extracted from control CHO/pHARt306 cells in the same manner as above, and assayed using the same assay system.

[5] = molecular target: T4, full-length Ang II type 1 receptor of human placental origin (Homo sapiens, UniProt P30556); experiment: Changes in intracellular inositol phosphate (IPs) concentration in CHO/pHARp306 cells; assay type: cell-based
T4 sequence (P30556 1-359 Q187R/F204S/L205C/K232N/K240R/L268Q/C289W/R311K/Y312D/F313I): T1 sequence (P30556 1-359 Q187R/F204S/L205C/K232N/K240R/L268Q/C289W/R311K/Y312D/F313I)
Experimental: (§1) To each well of a 12 well petri dish, a DMEM medium containing 10% (v/v) dialyzed-FCS and 35 μg/ml L-proline was added, and 1×10^5 CHO/pHAR306 cells were inoculated. One day later, the medium was replaced with the same medium but containing 1 μCi/ml [^3 H]-labeled inositol (Amersham), and cultivation was continued for 24 hours. The petri dish was twice washed with a PBS buffer (FLOW Laboratories) containing 0.2% (w/v) BSA and then kept standing for 30 minutes, after which it was kept standing at 37° C. for 30 minutes in the presence of the same buffer but containing 10 mM lithium chloride. […] When the reaction time exceeded 30 seconds, the reaction mixture was removed using an aspirator, after which 1 ml of a 5% (w/v) trichloroacetic acid solution was added to each well to stop the reaction. When the reaction time was 5 to 30 seconds, 1 ml of a 10% (w/v) trichloroacetic acid solution was injected directly to each well to stop the reaction. The [^3 H]-labeled inositol phosphate (IPs) was separated using ion exchange column AG 1-X8 (Bio-Rad Laboratories). […] The radioactivity of each fraction was determined using a liquid scintillation counter.

[6] = molecular target: T4, full-length Ang II type 1 receptor of human placental origin; experiment: Ang II binding activity of isolated CHO cell clone (method of Example 9); conditions: CHO/pHARp306 clone
Experimental: After the mixture was thrice washed with TSMB buffer, cells were solubilized with 1N sodium hydroxide (1 ml), and their radioactivity was determined using a γ-ray counter.

[7] = molecular target: T5, full-length Ang II type 1 receptor of human heart origin (Homo sapiens, UniProt P30556); conditions: CHO/pHARt306
T5 sequence (P30556 1-359): T1 sequence (P30556 1-359 Q187R/F204S/L205C/K232N/K240R/L268Q/C289W/R311K/Y312D/F313I) with R187Q, S204F, C205L, N232K, R240K, Q268L, W289C, K311R, D312Y, I313F
Experimental: as §1

[8] = molecular target: T5, full-length Ang II type 1 receptor of human heart origin; conditions: CHO/pHARt306; remark: listed apart in the source
Experimental: (§2) To each well of a 24 well petri dish, a DMEM medium containing 10% (v/v) dialyzed FCS and 35 μg/ml L-proline was added, and 1×10^5 CHO/pHAR306 cells were inoculated. […] After the reaction mixture was removed using an aspirator, 500 μl of a 5% (w/v) trichloroacetic acid solution was added to each well to stop the reaction. The amount of cAMP was measured by EIA (cAMP enzyme immunoassay system, produced by Amersham).

type 2 receptors = conditions: cited from earlier work
[9] = test system: full-length Ang II type 1 receptor from human placenta; experiment: Change in intracellular calcium ion concentration in CHOdhfr-/pHARp206 cells (Fura-2AM fluorescence); assay type: cell-based; conditions: final concentration 1 μM, 37° C.
Experimental: To each of two collagen-treated slide glasses (1×4 cm) in a 6 cm petri dish, 4 ml of an ASF104 medium (produced by Ajinomoto) containing 5% (v/v) FCS (fetal calf serum) was added, and 5×10^5 CHOdhfr- cells were seeded. After incubation at 37° C. in the presence of 5% carbon dioxide for one day, the medium was aspirated and twice washed with ASF104 medium. 5 μg of the above plasmid pHARp206 was dissolved in 50 μl of HBS buffer (8.0 g/l sodium chloride, 380 mg/l potassium chloride, 200 mg/l disodium monohydrogen phosphate, 5.9 g/l HEPES, 15 mg/l calcium chloride dihydrate, 10 mg/l magnesium chloride hexahydrate, pH 7.45). […]
After the above transformant cells CHOdhfr-/pHARp206 were twice washed with HEPES buffer (140 mM sodium chloride, 5 mM potassium chloride, 1 mM magnesium sulfate, 1 mM disodium monohydrogen phosphate, 1 mM calcium chloride, 25 mM glucose, 25 mM HEPES; pH 7.2), 4 ml of a HEPES buffer containing 4 μM Fura-2AM (Dojin Kagaku) was added, and the mixture was kept standing at 15° C. in the dark for 80 minutes. […] Fluorescence at a wavelength of 505 nm, generated upon excitation with ultraviolet rays of wavelengths of 340 nm and 380 nm, was measured.

[10] = molecular target: T4, full-length Ang II type 1 receptor of human placental origin; conditions: 10 μM forskolin in place of Ang II; CHO/pHARp306
Experimental: as §2

For CCCCc1nc(Cl)c(CO)n1Cc1ccc(-c2ccccc2-c2nn[nH]n2)cc1 [DuP753], the “specificity of action on Ang II receptors” value (Ang II receptor; vascular wall, adrenal cortex and other organs) is given as “act specifically on Ang II receptors in the vascular wall, adrenal cortex and other organs to suppress Ang II action only”, the “antagonism of type 1 receptors” value (type 1 receptors) is given as “antagonistic” and the “effect on reactions of KCl, norepinephrine, isoproterenol, vasopressin, bradykinin, acetylcholine or 5-HT” value [1] is given as “no effect”. The “effect on ACE action” value (ACE) was “no effect”.

With “Ang III: amino acid number of Ang III is lower by 1 than that of Ang II; used as agonist” the “Radioactivity (bound [125I]-labeled Ang II)” value [2] was 670 cpm, the “Competition; IC50 [-log(M)], column A (second; B in text)” value [3] was 9.07 -log(M) and the “Competition; IC50 [-log(M)]” value [4] was 7.57 -log(M).

In the case of Ang II, the “Radioactivity (bound [125I]-labeled Ang II)” value [2] is reported as 676 cpm, the “total IPs production, dose response” value ([5]; 20 minutes after stimulation, final Ang II 1 pM to 10 μM, FIG. 7B) is reported as “IPs production was suppressed in response to stimulation with high concentrations of Ang II” and the “IPs production, time course” value ([5]; Ang II 100 nM, 37° C., FIG. 6) is reported as “a transient rise in IP3 concentration occurred, followed by formation of IP2 and IP1 in this order”. For the same molecule, the “affinity to Ang II” value [6] was “high affinity”, the “total IPs production, dose response” value ([7]; 20 minutes after stimulation, final Ang II 1 pM to 10 μM, FIG. 7A) was “IPs production was not suppressed even in the presence of high concentrations of Ang II” and the “IPs production, time course” value ([7]; Ang II 100 nM, 37° C.) was “the same IPs production pattern as with CHO/pHARp306 cells”. For the same molecule, the “suppression of forskolin-stimulated cAMP production” value ([8]; 1 pM to 10 μM Ang II plus 10 μM forskolin, 10 minutes, FIG. 8A) was “cAMP production suppression depending on Ang II concentration”.

For CCOc1nc2cccc(C(=O)O)c2n1Cc1ccc(-c2ccccc2-c2nn[nH]n2)cc1 [CV-11974], the “Competition; IC50 [-log(M)], column A (second; B in text)” value [3] was 9.61 -log(M) and the IC50 ([4]; read-out: Competition, IC50 [-log(M)] (converted)) was 3.31e-10 M.

For CCCCc1nc(Cl)c(CC(=O)[O-])n1Cc1ccccc1[N+](=O)[O-].[Na+] [CV2961], the “Ang II receptor antagonist activity” value (Ang II receptor) is listed as “found to possess Ang II receptor antagonist activity”.

In the case of Cc1cc(Cn2cnc3c2CC(C(=O)O)N(C(=O)C(c2ccccc2)c2ccccc2)C3)ccc1N (stereo not drawn) [PD123177], the “Radioactivity (bound [125I]-labeled Ang II)” value [2] is reported as 69,980 cpm, the “Competition; IC50 [-log(M)], column A (second; B in text)” value [3] is reported as 5.49 -log(M) and the “Competition; IC50 [-log(M)]” value [4] is reported as < 6.00 -log(M). The “antagonism of type 2 receptors” value (type 2 receptors) was “antagonistic”.

In the case of “endothelin 1: endothelin 1 (CSCSSLMDKECVYFCHLDIIW)”, the “change in fluorescence (intracellular Ca ion concentration)” value [9] is reported as “no change occurred in fluorescence”.

In the case of C=C[C@@]1(C)CC(=O)[C@]2(O)[C@@]3(C)[C@@H](O)CCC(C)(C)[C@@H]3[C@H](O)[C@H](OC(C)=O)[C@@]2(C)O1 [forskolin], the “formation of cAMP” value [10] is reported as “about 80 pmol/well” and the “formation of cAMP” value ([8]; 10 μM forskolin in place of Ang II) is reported as “about 80 pmol/well”.
